Experimental data reported in publication PMC6271681, “Discovery of Novel c-Met Inhibitors Bearing a 3-Carboxyl Piperidin-2-one Scaffold” (Molecules, 2014).

Columns and labels:
c-Met kinase = c-Met kinase (Homo sapiens, UniProt P08581); assay: c-Met kinase assay (ELISA, purified recombinant protein); assay type: biochemical; conditions: for c-Met inhibition rate @10 μM / inhibition at 10 µM: compound at 10 μM; for inhibition at 10 µM: read-out: c-Met inhibition rate @10 μM; for IC50: ELISA, poly(Glu,Tyr)4:1 substrate, two separate experiments; for inhibition at 1 µM: read-out: c-Met inhibition rate @1 μM
Sequence of c-Met kinase (P08581 25-1390): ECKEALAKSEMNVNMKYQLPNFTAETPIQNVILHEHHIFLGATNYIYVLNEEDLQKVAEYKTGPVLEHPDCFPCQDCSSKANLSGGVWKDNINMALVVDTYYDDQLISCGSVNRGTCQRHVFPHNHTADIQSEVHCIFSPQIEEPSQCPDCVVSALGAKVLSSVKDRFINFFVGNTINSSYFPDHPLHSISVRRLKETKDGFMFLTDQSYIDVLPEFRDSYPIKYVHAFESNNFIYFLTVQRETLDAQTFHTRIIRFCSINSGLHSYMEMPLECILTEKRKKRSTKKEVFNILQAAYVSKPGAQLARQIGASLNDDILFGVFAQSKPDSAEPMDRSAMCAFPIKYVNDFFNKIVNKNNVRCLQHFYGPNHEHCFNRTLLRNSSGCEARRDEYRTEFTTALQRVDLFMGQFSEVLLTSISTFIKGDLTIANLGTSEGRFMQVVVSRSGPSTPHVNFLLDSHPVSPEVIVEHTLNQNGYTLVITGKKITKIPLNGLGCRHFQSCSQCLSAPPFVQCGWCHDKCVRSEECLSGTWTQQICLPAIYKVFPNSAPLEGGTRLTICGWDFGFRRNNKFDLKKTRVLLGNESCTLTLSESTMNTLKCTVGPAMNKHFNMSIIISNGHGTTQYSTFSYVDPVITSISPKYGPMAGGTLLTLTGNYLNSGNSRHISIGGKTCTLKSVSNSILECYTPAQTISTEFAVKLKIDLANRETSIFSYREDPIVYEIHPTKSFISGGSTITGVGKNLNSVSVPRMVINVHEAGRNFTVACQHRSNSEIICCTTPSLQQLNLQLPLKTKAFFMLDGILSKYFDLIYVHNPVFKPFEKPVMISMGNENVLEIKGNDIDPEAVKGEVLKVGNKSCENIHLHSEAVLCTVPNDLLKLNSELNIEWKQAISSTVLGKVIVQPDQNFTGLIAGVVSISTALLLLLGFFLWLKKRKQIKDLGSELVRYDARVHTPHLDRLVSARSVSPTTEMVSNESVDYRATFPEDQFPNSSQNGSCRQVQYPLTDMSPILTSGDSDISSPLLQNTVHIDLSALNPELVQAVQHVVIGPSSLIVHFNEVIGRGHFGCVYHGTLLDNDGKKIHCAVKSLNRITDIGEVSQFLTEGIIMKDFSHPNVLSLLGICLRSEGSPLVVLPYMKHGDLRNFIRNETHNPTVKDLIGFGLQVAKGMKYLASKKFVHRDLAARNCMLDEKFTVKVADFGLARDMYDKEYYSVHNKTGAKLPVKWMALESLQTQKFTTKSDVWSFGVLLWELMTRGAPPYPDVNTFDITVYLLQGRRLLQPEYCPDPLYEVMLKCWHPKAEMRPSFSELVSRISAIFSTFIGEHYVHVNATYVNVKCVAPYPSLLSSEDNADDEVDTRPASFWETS
Experimental: The effects of indicated compound on the activities of c-Met kinases were determined using enzyme-linked immunosorbent assays (ELISAs) with purified recombinant proteins. Briefly, 20 μg/mL poly (Glu,Tyr)4:1 (Sigma, St. Louis, MO, USA) was pre-coated in 96-well plates as a substrate. A 50-μL aliquot of 10 μmol/L ATP solution diluted in kinase reaction buffer (50 mmol/L HEPES [pH 7.4], 50 mmol/L MgCl2, 0.5 mmol/L MnCl2, 0.2 mmol/L Na3VO4, and 1 mmol/L DTT) was added to each well; 1 μL of various concentrations of indicated compound diluted in 1% DMSO (v/v) (Sigma) were then added to each reaction well. DMSO (1%, v/v) was used as the negative control. The kinase reaction was initiated by the addition of purified c-Met tyrosine kinase proteins diluted in 49 μL of kinase reaction buffer. After incubation for 60 min at 37 °C, the plate was washed three times with phosphate-buffered saline (PBS) containing 0.1% Tween 20 (T-PBS). Anti-phosphotyrosine (PY99) antibody (100 μL; 1:500, diluted in 5 mg/mL BSA T-PBS) was then added. After a 30-min incubation at 37 °C, the plate was washed three times, and 100 μL horseradish peroxidase-conjugated goat anti-mouse IgG (1:2000, diluted in 5 mg/mL BSA T-PBS) was added. The plate was then incubated at 37 °C for 30 min and washed 3 times. A 100-μL aliquot of a solution containing 0.03% H2O2 and 2 mg/ml o-phenylenediamine in 0.1 mol/L citrate buffer (pH 5.5) was added. The reaction was terminated by the addition of 50 μL of 2 mol/L H2SO4 as the color changed, and the plate was analyzed using a multi-well spectrophotometer (SpectraMAX 190, Molecular Devices, Sunnyvale, CA, USA) at 490 nm. […] The IC50 values were calculated from the inhibition curves in two separate experiments.

MKN45 cells = assay: Cell proliferation assay (SRB, 72 h); assay type: cell-based; conditions: MKN-45, MKN45 human gastric cancer cell line with constitutively active c-Met
Experimental: Cells were seeded in 96-well tissue culture plates. On the next day, the cells were exposed to various concentrations of compounds and further cultured for 72 h. Cell proliferation was then determined using sulforhodamine B (SRB, Sigma, St. Louis, MO, USA). The IC50 values were calculated by concentration-response curve fitting using the four-parameter method.

c-Met = conditions: in Figure 2; cited from earlier work
[1] = compound at 1 μM, printed in the c-Met IC50 column
[2] = printed in the c-Met IC50 column

| inhibition at 10 µM (c-Met kinase; [2]) [%] | IC50 (MKN45 cells) [µM] | Compound | further results |
| --- | --- | --- | --- |
| – | 2.95 ± 0.12 | CCC1(C(=O)Nc2ccc(Oc3ccnc4cc(OC)c(OC)cc34)c(F)c2)CCCN(c2ccc(F)cc2)C1=O (centres unmarked) [Compound 20d, N-(4-((6,7-dimethoxyquinolin-4-yl)oxy)-3-fluorophenyl)-3-ethyl-1-(4-fluorophenyl)-2-oxopiperidine-3-carboxamide] | IC50 (c-Met kinase): 0.0191 ± 0.0045 µM |
| – | 0.29 ± 0.02 | CCOc1ccn(-c2ccc(F)cc2)c(=O)c1C(=O)Nc1ccc(Oc2ccnc(N)c2Cl)c(F)c1 [BMS-777607, N-(4-(2-amino-3-chloropyridin-4-yloxy)-3-fluorophenyl)-4-ethoxy-1-(4-fluorophenyl)-2-oxo-1,2-dihydropyridine-3-carboxamide, reference compound] | IC50 (c-Met): 0.0039 µM; IC50 (c-Met kinase): 0.0037 ± 0.0013 µM |
| – | 0.65 ± 0.13 | COc1cc2nccc(Oc3ccc(NC(=O)C4(C)CCCN(c5ccc(F)cc5)C4=O)cc3F)c2cc1OC (centres unmarked) [Compound 20c, N-(4-((6,7-dimethoxyquinolin-4-yl)oxy)-3-fluorophenyl)-1-(4-fluorophenyl)-3-methyl-2-oxopiperidine-3-carboxamide] | IC50 (c-Met kinase): 0.0112 ± 0.0041 µM |
| – | 16 ± 0.8 | CCCCC1(C(=O)Nc2ccc(Oc3ccnc4cc(OC)c(OC)cc34)c(F)c2)CCCN(c2ccc(F)cc2)C1=O (centres unmarked) [Compound 20e, N-(4-((6,7-dimethoxyquinolin-4-yl)oxy)-3-fluorophenyl)-3-butyl-1-(4-fluorophenyl)-2-oxopiperidine-3-carboxamide] | IC50 (c-Met kinase): 0.064 ± 0.0108 µM |
| 38.4 | – | COc1cc2nccc(Oc3ccc(NC(=O)C4CCCN(c5ccc(F)cc5)C4=O)cc3F)c2cc1OC (centres unmarked) [Compound 20a, N-(4-((6,7-dimethoxyquinolin-4-yl)oxy)-3-fluorophenyl)-1-(4-fluorophenyl)-2-oxopiperidine-3-carbox-amide] | – |

The remaining lines, values behind:

| Compound | inhibition at 10 µM (c-Met kinase; [2]) [%] | IC50 (MKN45 cells) [µM] | further results |
| --- | --- | --- | --- |
| N-(4-((7H-pyrrolo[2,3-d]pyrimidin-4-yl)oxy)-3-fluorophenyl)-1-(4-fluorophenyl)-2-oxopiperidine-3-carboxamide [Compound 17a] | – | – | c-Met inhibition rate @1 μM (c-Met kinase; [1]): 41.9%@1 μM; c-Met inhibition rate @10 μM (c-Met kinase; [2]): 70.7%@10 μM |
| COc1ccc(CNc2nccc(Oc3ccc(NC(=O)C4(Cl)CCCN(c5ccc(F)cc5)C4=O)cc3F)n2)cc1 (centres unmarked) [Compound 18b, 3-Chloro-N-(3-fluoro-4-((2-((4-methoxybenzyl)amino)pyrimidin-4-yl)oxy)phenyl)-1-(4-fluorophenyl)-2-oxopiperidine-3-carboxamide] | 10 | – | – |
| N-(4-((7H-pyrrolo[2,3-d]pyrimidin-4-yl)oxy)-3-fluorophenyl)-3-chloro-1-(4-fluorophenyl)-2-oxo-piperidine-3-carboxamide [Compound 17b] | – | – | c-Met inhibition rate @10 μM (c-Met kinase; [2]): 15.4%@10 μM |
| NC(=O)c1nccc(Oc2ccc(NC(=O)C3(Cl)CCCN(c4ccc(F)cc4)C3=O)cc2F)c1Cl (centres unmarked) [Compound 15b, 3-Chloro-4-(4-(3-chloro-1-(4-fluorophenyl)-2-oxopiperidine-3-carboxamido)-2-fluorophenoxy)-picolinamide] | 90.2 | – | inhibition at 1 µM (c-Met kinase; [1]): 38.7% |
| COc1cc2nccc(Oc3ccc(NC(=O)C4(Cl)CCCN(c5ccc(F)cc5)C4=O)cc3F)c2cc1OC (centres unmarked) [Compound 20b, 3-Chloro-N-(4-((6,7-dimethoxyquinolin-4-yl)oxy)-3-fluorophenyl)-1-(4-fluorophenyl)-2-oxopiperidine-3-carboxamide] | – | 0.57 ± 0.04 | – |
| Nc1nccc(Oc2ccc(NC(=O)C3(Cl)CCCN(c4ccc(F)cc4)C3=O)cc2F)n1 (centres unmarked) [Compound 19b, N-(4-((2-aminopyrimidin-4-yl)oxy)-3-fluorophenyl)-3-chloro-1-(4-fluorophenyl)-2-oxopiperidine-3-carboxamide] | 52.5 | – | inhibition at 1 µM (c-Met kinase; [1]): 28.3% |
| NC(=O)c1nccc(Oc2ccc(NC(=O)C3CCCN(c4ccc(F)cc4)C3=O)cc2F)c1Cl (centres unmarked) [Compound 15a, 3-Chloro-4-(2-fluoro-4-(1-(4-fluorophenyl)-2-oxopiperidine-3-carboxamido)phenoxy)picolinamide] | 63.9 | – | – |
| COc1ccc(CNc2nccc(Oc3ccc(NC(=O)C4CCCN(c5ccc(F)cc5)C4=O)cc3F)n2)cc1 (centres unmarked) [Compound 18a, N-(3-fluoro-4-((2-((4-methoxybenzyl)amino)pyrimidin-4-yl)oxy)phenyl)-1-(4-fluorophenyl)-2-oxo-piperidine-3-carboxamide] | 28.4 | – | – |
| Nc1nccc(Oc2ccc(NC(=O)C3CCCN(c4ccc(F)cc4)C3=O)cc2F)n1 (centres unmarked) [Compound 19a, N-(4-((2-aminopyrimidin-4-yl)oxy)-3-fluorophenyl)-1-(4-fluorophenyl)-2-oxopiperidine-3-carbox-amide] | 59.1 | – | inhibition at 1 µM (c-Met kinase; [1]): 27.5% |
